Laboratory results reported in US20100041672A1, “USE OF QUINOLINE DERIVATIVES IN THE TREATMENT OF PAIN AND IRRITABLE BOWEL SYNDROME” (GLAXO GROUP LIMITED, priority 2007, published 2010).
Entries after “also recorded” stand apart in the source; their conditions may differ.

Key:
rats = test: Chronic Constriction Injury (CCI) model of neuropathic pain in rats (mechanical allodynia, Von Frey hairs); format: in vivo, rat; conditions: 10 mg/kg b.i.d. po
Method: Under Isoflurane anaesthesia, the sciatic nerve in the left leg of the rat was exposed at mid thigh level and 4 loose ligatures of Chromic 4.0 gut tied around it. The wound was closed and secured with staples. The Sham operated animals underwent the same surgical technique except that the nerve was not ligated. […] The presence of mechanical (tactile) allodynia was assessed using the manual application of Von Frey hair monofilaments (Stoelting, Wood Dale, Ill., USA). Animals were placed in clear Perspex boxes on a raised perforated metallic platform, from below which the monofilaments were applied in ascending order to the plantar region of the hind paw (range: 1.4 g-26 g). Each hair was applied for approx. 3-5 seconds until a withdrawal response was observed. The lowest hair to give a withdrawal was recorded as the response after confirmation with reapplication of lower and/or higher hairs within the range tested.
All data are expressed as mean±s.e.m. Statistical analysis was carried out using Repeated Measures ANOVA (Statistica Version 6) to compare the vehicle treated groups with the drug treated groups (P<0.05 considered significant). Area Under Curve (AUC) calculations were performed within Excel and statistical analysis was carried out using a one-way ANOVA followed by Fischer LSD post-hoc test (Statistica Version 6) to compare the vehicle treated CCI and Sham groups with the drug treated groups (P<0.05 considered significant). Data recorded in Excel (Microsoft XP) and graphs produced in GraphPad Prism (Version 4).
By 8 days post-surgery neuropathy was beginning to develop as mechanical allodynia (assessed using mVFHs) was evident in all CCI operated groups compared to the Sham operated animals. This was maintained as a stable baseline until day 23 post-surgery (FIG. 12), when the animals were randomised and then chronically dosed with either SB742457 (10 mg/kg b.i.d. po), gabapentin (30 mg/kg b.i.d. po) or vehicle (1% methylcellulose; b.i.d. po) for 8 days (days 26-33 post-surgery). […] Three days after cessation of treatment the withdrawal thresholds of the drug treated groups had decreased back towards vehicle treated baseline levels.

Random Hooded rats = test: rat joint pain model of chronic inflammatory pain (intra-articular FCA, hind paw weight bearing); format: in vivo; conditions: for Statistics for hypersensitivity data (weight bearing), significance vs vehicle, Day 17: Day 17 post FCA; for Statistics for hypersensitivity data (weight bearing), significance vs vehicle, Day 15: Day 15 post FCA; for Statistics for hypersensitivity data (weight bearing), significance vs vehicle, Day 14: Day 14 post FCA; for effect on hypersensitivity in the joint pain model of chronic inflammatory pain: once daily oral dosing days 13-17 post intra-articular FCA; for Statistics for hypersensitivity data (weight bearing), significance vs vehicle, Day 13: Day 13 post FCA; for Statistics for hypersensitivity data (weight bearing), significance vs vehicle, Day 16: Day 16 post FCA
Method: Random Hooded rats, 150-180 g, obtained from Charles River UK, were anaesthetised under gaseous anaesthetic and the area surrounding the left and right knee joint shaved and cleaned as for aseptic surgery. Animals were injected with 150 μl of FCA into the left knee joint (intra-articular injection). Animals were immediately allowed to recover from anaesthetic in a warmed/oxygenated environment until being returned to their home cage on paper bedding. No further post-op care was provided.
(§1) Rats were tested prior to surgery and from 18 h post FCA (minimum of once weekly) for weight bearing (g) and joint diameter (mm). Weight bearing is measured by the animal's ability to place body weight across both hind paws on a Dual Channel Weight Averager which was calibrated each day prior to use using a 10 g weight (Rat capacitance tester—Linton Instruments). Hind paw weight bearing data was calculated and expressed as the percentage of the contralateral paw.
All data were expressed as mean±s.e.m.
(§2) Prior to FCA intra-articular injection into the left knee, rats display even weight bearing. By day 1 post-insult weight bearing had shifted such that the majority of the body weight was transmitted through the contralateral limb. By day 10 this effect was maintained and at this point animals were randomised across treatment groups. Once daily dosing with vehicle, SB742457 or celecoxib began on day 13 and continued up to and including day 17.
as §1, with “100” for “10”
as §2, with “SB792988A” for “SB742457”, “17. […] AUC was calculated using Microsoft Excel.” for “17.”

[1] = 1 mg/kg oral once daily from day 13
[2] = 10 mg/kg oral once daily from day 13
[3] = 0.1 mg/kg oral once daily from day 13, SB792988A study
[4] = 1 mg/kg oral once daily from day 13, SB792988A study
[5] = 3 mg/kg oral once daily from day 13, SB792988A study
[6] = 10 mg/kg oral once daily from day 13, SB792988A study

O=S(=O)(c1ccccc1)c1cnc2c(N3CCNCC3)cccc2c1 [SB742457, 3-Phenylsulfonyl-8-piperazin-1-yl-quinoline]
reversal of mechanical allodynia after 5 days of dosing (rats; after 5 days of dosing): not significantly different to Sham levels; also recorded: maximal reversal back to Sham levels | reversal of mechanical allodynia after 8 days of dosing (rats; after 8 days of dosing): maximal reversal (P<0.001) back to Sham levels | time to significant reversal of CCI-induced mechanical allodynia (rats; after a single dose): ≤ 1 h | comparison with the positive control gabapentin (30 mg/kg b.i.d. po) (rats; throughout the study): not significantly different to each other | Statistics for hypersensitivity data (weight bearing), significance vs vehicle, Day 17 (Random Hooded rats; 0.1 mg/kg oral once daily from day 13): ** (** = p < 0.01) | Statistics for hypersensitivity data, significance vs vehicle, AUC (Random Hooded rats; 1 mg/kg oral once daily days 13-17): *** (*** = p < 0.001) | Statistics for hypersensitivity data (weight bearing), significance vs vehicle, Day 15 (Random Hooded rats; [1]): *** (*** = p < 0.001) | Statistics for hypersensitivity data (weight bearing), significance vs vehicle, Day 17 (Random Hooded rats; [1]): *** (*** = p < 0.001) | Statistics for hypersensitivity data, significance vs vehicle, AUC (Random Hooded rats; 10 mg/kg oral once daily days 13-17): *** (*** = p < 0.001) | Statistics for hypersensitivity data (weight bearing), significance vs vehicle, Day 14 (Random Hooded rats; [2]): ** (** = p < 0.01) | Statistics for hypersensitivity data (weight bearing), significance vs vehicle, Day 15 (Random Hooded rats; [2]): *** (*** = p < 0.001) | Statistics for hypersensitivity data (weight bearing), significance vs vehicle, Day 17 (Random Hooded rats; [2]): *** (*** = p < 0.001) | separation from vehicle (Random Hooded rats; all doses above and including 0.1 mg/kg): significant separation from vehicle on at least one day | effect compared with the positive control, celecoxib (Random Hooded rats; highest dose of 10 mg/kg vs 30 mg/kg celecoxib): not statistically different | effect on hypersensitivity in the joint pain model of chronic inflammatory pain (Random Hooded rats): reversed hypersensitivity

Cl.O=S(=O)(c1cccc(F)c1)c1cnc2c(N3CCNCC3)cccc2c1 [SB792988A, 3-[(3-Fluorophenyl)sulfonyl]-8-(1-piperazinyl)quinoline Hydrochloride]
Statistics for hypersensitivity data (weight bearing), significance vs vehicle, Day 13 (Random Hooded rats; [3]): * (* = p < 0.05) | Statistics for hypersensitivity data (weight bearing), significance vs vehicle, Day 17 (Random Hooded rats; [3]): * (* = p < 0.05) | Statistics for hypersensitivity data (weight bearing), significance vs vehicle, Day 14 (Random Hooded rats; [4]): * (* = p < 0.05) | Statistics for hypersensitivity data (weight bearing), significance vs vehicle, Day 17 (Random Hooded rats; [4]): * (* = p < 0.05) | Statistics for hypersensitivity data (weight bearing), significance vs vehicle, Day 13 (Random Hooded rats; [5]): ** (** = p < 0.01) | Statistics for hypersensitivity data (weight bearing), significance vs vehicle, Day 15 (Random Hooded rats; [5]): *** (*** = p < 0.001) | Statistics for hypersensitivity data (weight bearing), significance vs vehicle, Day 16 (Random Hooded rats; [5]): * (* = p < 0.05) | Statistics for hypersensitivity data (weight bearing), significance vs vehicle, Day 17 (Random Hooded rats; [5]): *** (*** = p < 0.001) | Statistics for hypersensitivity data (weight bearing), significance vs vehicle, Day 14 (Random Hooded rats; [6]): *** (*** = p < 0.001) | Statistics for hypersensitivity data (weight bearing), significance vs vehicle, Day 15 (Random Hooded rats; [6]): *** (*** = p < 0.001) | Statistics for hypersensitivity data (weight bearing), significance vs vehicle, Day 16 (Random Hooded rats; [6]): *** (*** = p < 0.001) | Statistics for hypersensitivity data (weight bearing), significance vs vehicle, Day 17 (Random Hooded rats; [6]): *** (*** = p < 0.001) | separation from vehicle (Random Hooded rats; all doses (0.1, 1, 3, 10 mg/kg)): significant separation from vehicle on various days | effect compared with the positive control, celecoxib (Random Hooded rats; highest doses of 3 and 10 mg/kg vs 30 mg/kg celecoxib): not statistically different | effect on hypersensitivity in the joint pain model of chronic inflammatory pain (Random Hooded rats): reversed hypersensitivity
